This note sets out measurements from patent US10472341B2, “Bicyclic tetrahydrothiazepine derivatives useful for the treatment of neoplastic and/or infectious diseases” (APEIRON BIOLOGICS AG, priority 2015, dated 2019).

Structures are written as SMILES. Read-outs that look alike come from different tables or passages of the source.

For test [1], the system named is aCD3/aCD28-stimulated human PBMCs. Nature of the test: Cytokine production in aCD3/aCD28 stimulated human PBMCs. The format is cell-based. To be noted: PBMC, 18 h. A digest of the protocol:
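Compound effects measured in buffy-coat PBMCs activated 18 h at 37° C by 1 μg/mL each of soluble anti-CD3 (OKT3) and anti-CD28 (28.2), 1e6 cells/mL. Cytokines in harvested supernatants read by MSD or HTRF.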

Test [2] deals with aCD3/aCD28-stimulated human CD4+-T-cells. The experiment in a line: IL-2 production and activation markers in aCD3/aCD28 stimulated isolated human CD4+-T-cells. The format is cell-based. To be noted: IL-2 production at 3 μM compound. A digest of the protocol: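 CD4+ T cells isolated from buffy-coat PBMCs by microbeads were plated in Xvivo medium (1.5*10^5 cells/well) and stimulated with anti-CD3/28 mAbs plus compound. IL-2 measured by ELISA in supernatants at 24 h or 48 h; CD25 and proliferation by flow cytometry, CD69 at 24 h. Activity classes based on IL-2 at 3 μM compound.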

Setting [3] is: enhancement of IFN-γ production, read-out: Activity Class IFN-γ.
The mark [4] stands for this setting: enhancement of IL-2 production, read-out: Activity Class IL-2.

Take `CCNC(=O)c1ccc2c(c1)N(Cc1ccc(OC(F)(F)F)cc1)C(=O)[C@@H](N)CS2.Cl` [Example 18, (3R)-3-amino-N-ethyl-4-oxo-5-{[4-(trifluoromethoxy)phenyl]methyl}-2,3,4,5-tetrahydro-1,5-benzothiazepine-7-carboxamide hydrochloride]: the EC50 in test [1] (setting [3]) is < 1.58 µM; in test [1] (setting [4]) it was 1.58 to 5.01 µM. For the same compound, the “Activity Class CD4+” value in test [2] was “C (IL-2 production at 3 μM compound concentration between 2-fold increase as compared to mean IL-2 production of stimulated cells in the absence of compounds and <2 ng/mL)”.

On to `CC(C)NC(=O)c1ccc2c(c1)N(Cc1ccc(Cl)c(Cl)c1)C(=O)[C@@H](N)CS2(=O)=O.Cl` [Example 88, (3R)-3-amino-5-[(3,4-dichlorophenyl)methyl]-1,1,4-trioxo-N-(propan-2-yl)-2,3,4,5-tetrahydro-1λ^6,5-benzothiazepine-7-carboxamide hydrochloride], for which the values for the EC50 in test [1] (setting [3]) and in test [1] (setting [4]) were 1.58 to 5.01 µM and > 5.01 µM, respectively. Moreover, the “Activity Class CD4+” value in test [2] is “C (IL-2 production at 3 μM compound concentration between 2-fold increase as compared to mean IL-2 production of stimulated cells in the absence of compounds and <2 ng/mL)”.

Turning to `CNC(=O)c1ccc2c(c1)N(Cc1ccc(OC(F)(F)F)cc1)C(=O)[C@@H](N)CS2.Cl` [Example 17, (3R)-3-amino-N-methyl-4-oxo-5-{[4-(trifluoromethoxy)phenyl]methyl}-2,3,4,5-tetrahydro-1,5-benzothiazepine-7-carboxamide hydrochloride], the EC50 in test [1] (setting [4]) was > 5.01 µM. In test [2], the “Activity Class CD4+” value was “C (IL-2 production at 3 μM compound concentration between 2-fold increase as compared to mean IL-2 production of stimulated cells in the absence of compounds and <2 ng/mL)”.

For `CCCONC(=O)c1cc2c(cc1F)SC[C@H](N)C(=O)N2Cc1ccc(Cl)cc1.Cl` [Example 58, (3R)-3-amino-5-[(4-chlorophenyl)methyl]-8-fluoro-4-oxo-N-propoxy-2,3,4,5-tetrahydro-1,5-benzothiazepine-7-carboxamide hydrochloride], the EC50 in test [1] (setting [3]) and in test [1] (setting [4]) was > 5.01 µM throughout. The “Activity Class CD4+” value in test [2] was “C (IL-2 production at 3 μM compound concentration between 2-fold increase as compared to mean IL-2 production of stimulated cells in the absence of compounds and <2 ng/mL)”.

In the case of `CCCCNC(=O)c1ccc2c(c1)N(Cc1ccc(C(C)(C)C)cc1)C(=O)[C@@H](N)CS2.Cl` [Example 2, (3R)-3-amino-N-butyl-5-[(4-tert-butylphenyl)methyl]-4-oxo-2,3,4,5-tetrahydro-1,5-benzothiazepine-7-carboxamide hydrochloride], the EC50 was < 1.58 µM in test [1] (setting [3]) and 1.58 to 5.01 µM in test [1] (setting [4]). Also, the “Activity Class CD4+” value in test [2] is listed as “B (IL-2 production at 3 μM compound concentration between 2-10 ng/mL)”.

For `CC(C)NC(=O)c1ccc2c(c1)N(Cc1ccc(C(C)(C)C)cc1)C(=O)[C@@H](N)CS2.Cl` [Example 4, (3R)-3-amino-5-[(4-tert-butylphenyl)methyl]-4-oxo-N-(propan-2-yl)-2,3,4,5-tetrahydro-1,5-benzothiazepine-7-carboxamide hydrochloride], the EC50 in test [1] (setting [3]) is > 5.01 µM; in test [1] (setting [4]), 1.58 to 5.01 µM. In test [2], the “Activity Class CD4+” value is “C (IL-2 production at 3 μM compound concentration between 2-fold increase as compared to mean IL-2 production of stimulated cells in the absence of compounds and <2 ng/mL)”.

In the case of `CC(C)C(C)NC(=O)c1ccc2c(c1)N(Cc1ccc(Cl)cc1)C(=O)[C@@H](N)CS2.Cl` (stereo partly drawn) [Example 63, (3R)-3-amino-5-[(4-chlorophenyl)methyl]-N-(3-methylbutan-2-yl)-4-oxo-2,3,4,5-tetrahydro-1,5-benzothiazepine-7-carboxamide hydrochloride], the EC50 in test [1] (setting [3]) and in test [1] (setting [4]) was 1.58 to 5.01 µM in each case. For the same compound, the “Activity Class CD4+” value in test [2] is “B (IL-2 production at 3 μM compound concentration between 2-10 ng/mL)”.

As for `COc1ccc(CNC(=O)c2ccc3c(c2)N(Cc2ccc(OC(F)(F)F)cc2)C(=O)[C@@H](N)CS3)cc1.Cl` [Example 7, (3R)-3-amino-N-[(4-methoxyphenyl)methyl]-4-oxo-5-{[4-(trifluoromethoxy)-phenyl]methyl}-2,3,4,5-tetrahydro-1,5-benzothiazepine-7-carboxamide hydrochloride], the EC50 in test [1] (setting [3]) is < 1.58 µM; in test [1] (setting [4]), 1.58 to 5.01 µM. Besides, in test [2], the “Activity Class CD4+” value is recorded as “B (IL-2 production at 3 μM compound concentration between 2-10 ng/mL)”.

Consider `CCCCNC(=O)c1ccc2c(c1)N(Cc1ccc(-n3cncn3)cc1)C(=O)[C@@H](N)CS2.Cl` [Example 46, (3R)-3-amino-N-butyl-4-oxo-5-{[4-(1H-1,2,4-triazol-1-yl)phenyl]methyl}-2,3,4,5-tetrahydro-1,5-benzothiazepine-7-carboxamide hydrochloride], for which the EC50 was 1.58 to 5.01 µM in test [1] (setting [3]) and > 5.01 µM in test [1] (setting [4]). For the same compound, in test [2], the “Activity Class CD4+” value is “C (IL-2 production at 3 μM compound concentration between 2-fold increase as compared to mean IL-2 production of stimulated cells in the absence of compounds and <2 ng/mL)”.

In the case of `CC(C)(O)CNC(=O)c1ccc2c(c1)N(Cc1ccc(Cl)cc1)C(=O)[C@@H](N)CS2` [Example 48, (3R)-3-amino-5-[(4-chlorophenyl)methyl]-N-(2-hydroxy-2-methylpropyl)-4-oxo-2,3,4,5-tetrahydro-1,5-benzothiazepine-7-carboxamide], the EC50 in test [1] (setting [3]) is 1.58 to 5.01 µM; in test [1] (setting [4]) it was > 5.01 µM. The “Activity Class CD4+” value in test [2] was “C (IL-2 production at 3 μM compound concentration between 2-fold increase as compared to mean IL-2 production of stimulated cells in the absence of compounds and <2 ng/mL)”.

Take `CCCC(=O)NNC(=O)c1ccc2c(c1)N(Cc1ccc(Cl)cc1)C(=O)[C@@H](N)CS2.Cl` [Example 53, (3R)-3-amino-N′-butanoyl-5-[(4-chlorophenyl)methyl]-4-oxo-2,3,4,5-tetrahydro-1,5-benzothiazepine-7-carbohydrazide hydrochloride]: the EC50 in test [1] (setting [3]) and in test [1] (setting [4]) was > 5.01 µM in each case. In test [2], the “Activity Class CD4+” value was “C (IL-2 production at 3 μM compound concentration between 2-fold increase as compared to mean IL-2 production of stimulated cells in the absence of compounds and <2 ng/mL)”.

`CCCCNC(=O)c1cc2c(cc1F)SC[C@H](N)C(=O)N2Cc1ccc(OC(F)(F)F)cc1.Cl` [Example 5, (3R)-3-amino-N-butyl-8-fluoro-4-oxo-5-{[4-(trifluoromethoxy)phenyl]methyl}-2,3,4,5-tetrahydro-1,5-benzothiazepine-7-carboxamide hydrochloride]: the EC50 in test [1] (setting [3]) was 1.58 to 5.01 µM; in test [1] (setting [4]), > 5.01 µM. In addition, the “Activity Class CD4+” value in test [2] was “B (IL-2 production at 3 μM compound concentration between 2-10 ng/mL)”.

For `CCCCNC(=O)c1ccc2c(c1)N(Cc1ccc(C#N)cc1)C(=O)[C@@H](N)CS2.Cl` [Example 21, (3R)-3-amino-N-butyl-5-[(4-cyanophenyl)methyl]-4-oxo-2,3,4,5-tetrahydro-1,5-benzothiazepine-7-carboxamide hydrochloride], the figures for the EC50 in test [1] (setting [3]) and in test [1] (setting [4]) were < 1.58 µM and > 5.01 µM, respectively. In addition, the “Activity Class CD4+” value in test [2] was “C (IL-2 production at 3 μM compound concentration between 2-fold increase as compared to mean IL-2 production of stimulated cells in the absence of compounds and <2 ng/mL)”.

With `CCCCNC(=O)c1ccc2c(c1)N(Cc1ccc(Cl)cc1)C(=O)[C@@H](N)CS2.Cl` [Example 10, (3R)-3-amino-N-butyl-5-[(4-chlorophenyl)methyl]-4-oxo-2,3,4,5-tetrahydro-1,5-benzothiazepine-7-carboxamide hydrochloride], the figures for the EC50 in test [1] (setting [3]) and in test [1] (setting [4]) were 1.58 to 5.01 µM and > 5.01 µM, respectively. Besides, the “Activity Class CD4+” value in test [2] is “C (IL-2 production at 3 μM compound concentration between 2-fold increase as compared to mean IL-2 production of stimulated cells in the absence of compounds and <2 ng/mL)”.

Regarding `COc1ccc([C@@H](C)NC(=O)c2ccc3c(c2)N(Cc2ccc(Cl)cc2)C(=O)[C@@H](N)CS3)cc1` [Example 27, (3R)-3-amino-5-[(4-chlorophenyl)methyl]-N-[(1R)-1-(4-methoxyphenyl)ethyl]-4-oxo-2,3,4,5-tetrahydro-1,5-benzothiazepine-7-carboxamide], the EC50 in test [1] (setting [3]) was < 1.58 µM; in test [1] (setting [4]), 1.58 to 5.01 µM. Moreover, the “Activity Class CD4+” value in test [2] is “B (IL-2 production at 3 μM compound concentration between 2-10 ng/mL)”.

Regarding `Cl.N[C@H]1CSc2ccc(C(=O)NCc3ccc(N4CCOCC4)cc3)cc2N(Cc2ccc(OC(F)(F)F)cc2)C1=O` [Example 11, (3R)-3-amino-N-{[4-(morpholin-4-yl)phenyl]methyl}-4-oxo-5-{[4-(trifluoromethoxy)-phenyl]methyl}-2,3,4,5-tetrahydro-1,5-benzothiazepine-7-carboxamide hydrochloride], the EC50 in test [1] (setting [3]) and in test [1] (setting [4]) was > 5.01 µM each time. Also, the “Activity Class CD4+” value in test [2] was “C (IL-2 production at 3 μM compound concentration between 2-fold increase as compared to mean IL-2 production of stimulated cells in the absence of compounds and <2 ng/mL)”.

In the case of `Cl.N[C@H]1CS(=O)(=O)c2cc(F)c(C(=O)N[C@H]3C[C@@H]3c3ccccc3)cc2N(Cc2ccc(Cl)cc2)C1=O` [Example 98, (3R)-3-amino-5-[(4-chlorophenyl)methyl]-8-fluoro-1,1,4-trioxo-N-[(1S,2R)-2-phenylcyclopropyl]-2,3,4,5-tetrahydro-1λ^6,5-benzothiazepine-7-carboxamide hydrochloride], the EC50 in test [1] (setting [3]) and in test [1] (setting [4]) was < 1.58 µM throughout. The “Activity Class CD4+” value in test [2] is listed as “A (IL-2 production at 3 μM compound concentration >10 ng/mL)”.
